Several values for one entry are separate records, joined by “and”; a condition that tells them apart may be missing. Identical values can stand only once. Toxic doses and inconclusive results are not listed. How the source made its calls: active means survival T/C of 150% or more; inactive means T/C below 125% in these data.
Tested on: BDF1 mice, Lewis lung carcinoma iv, survival T/C
Assay: NCI In Vivo Anticancer Drug Screen. Data for tumor model Lewis Lung Carcinoma (intravenous) in B6D2F1 (BDF1) mice
Details: endpoint: median survival time, higher = longer survival
Experimental: The antitumor activity of compounds was measured in mice bearing transplantable tumors. Survival or tumor size were measured and the results are expressed as the measurement made in the treated group (T) divided by the measurement made in the vehicle treated control group (C). The tumor model used in this assay is Lewis Lung Carcinoma (intravenous) in B6D2F1 (BDF1) mice

[1] = dose: 12.5 mg/kg/injection, schedule: Q01DX009 (ip), vehicle: saline with Tween-80
[2] = dose: 50.0 mg/kg/injection, schedule: Q01DX009 (ip), vehicle: saline with Tween-80
[3] = dose: 100.0 mg/kg/injection, schedule: Q01DX009 (ip), vehicle: saline with Tween-80
[4] = dose: 200.0 mg/kg/injection, schedule: Q01DX009 (ip), vehicle: saline with Tween-80
[5] = dose: 25.0 mg/kg/injection, schedule: Q01DX009 (ip), vehicle: saline with Tween-80
[6] = dose: 12.5 mg/kg/injection, schedule: Q01DX009 (ip), vehicle: Klucel (hydroxypropylcellulose) (HPC)
[7] = dose: 25.0 mg/kg/injection, schedule: Q01DX009 (ip), vehicle: Klucel (hydroxypropylcellulose) (HPC)
[8] = dose: 50.0 mg/kg/injection, schedule: Q01DX009 (ip), vehicle: Klucel (hydroxypropylcellulose) (HPC)

Measured: T/C

O=c1cc(CCl)[nH]nc1CCl
inactive: dose: 3.12 mg/kg/injection, schedule: Q01DX009 (ip), vehicle: saline with Tween-80 98 % of control | dose: 6.25 mg/kg/injection, schedule: Q01DX009 (ip), vehicle: saline with Tween-80 96 % of control | [1] 96 % of control

CCCCCCCCCCCCCCCCCC1=NC(C)CC(C)(C)O1 (configuration not stated)
inactive: [2] 106 % of control | [3] 103 % of control | [4] 98 % of control

CC(=O)Nc1ccc(Nc2ccc(C(=C3C=CC(=[N+](C)CCC#N)C=C3)c3ccc(N(C)CCC#N)cc3)cc2)cc1
inactive: [1] 101 % of control | [5] 110 % of control

CCC1(O)CC2CN(CCc3c([nH]c4ccccc34)C(C(=O)OC)(c3cc4c(cc3OC)N(C)C3C(O)(C(N)=O)C(O)C5(CC)C=CCN6CCC43C65)C2)C1 (configuration not stated) (tested in a mixture with another compound)
inactive: dose: 0.6 mg/kg/injection, schedule: Q04DX003 (ip), vehicle: saline 106 % of control | dose: 1.0 mg/kg/injection, schedule: Q04DX003 (ip), vehicle: saline 111 % of control | dose: 1.67 mg/kg/injection, schedule: Q04DX003 (ip), vehicle: saline 97 % of control | dose: 216.0 micrograms/kg/injection, schedule: Q01DX009 (ip), vehicle: saline 93 % of control | dose: 360.0 micrograms/kg/injection, schedule: Q01DX009 (ip), vehicle: saline 97 % of control

CCCCCCCCCCCCCCCCCCCCCC(=O)Nc1ccn(C2OC(CO)C(O)C2O)c(=O)n1 (configuration not stated)
inactive: [5] 94 % of control | [2] 124 % of control | [3] 113 % of control | [4] 120 % of control

CC1CN1CC(O)C(O)CN1CC1C (configuration not stated)
inactive: dose: 0.25 mg/kg/injection, schedule: Q01DX009 (ip), vehicle: saline 99 % of control | dose: 0.5 mg/kg/injection, schedule: Q01DX009 (ip), vehicle: saline 111 % of control and 116 % of control | dose: 1.0 mg/kg/injection, schedule: Q01DX009 (ip), vehicle: saline 121 % of control and 116 % of control | dose: 2.0 mg/kg/injection, schedule: Q01DX009 (ip), vehicle: saline 123 % of control

O=S(=O)(O)O.[W]
inactive: dose: 0.38 mg/kg/injection, schedule: Q01DX009 (ip), vehicle: saline 102 % of control | dose: 0.75 mg/kg/injection, schedule: Q01DX009 (ip), vehicle: saline 118 % of control | dose: 1.5 mg/kg/injection, schedule: Q01DX009 (ip), vehicle: saline 98 % of control | dose: 3.0 mg/kg/injection, schedule: Q01DX009 (ip), vehicle: saline 119 % of control

CN(C1=NS(=O)(=O)N=C(N(C)c2ccccc2)O1)c1ccccc1
inactive: [6] 97 % of control | [7] 102 % of control | [8] 97 % of control | dose: 100.0 mg/kg/injection, schedule: Q01DX009 (ip), vehicle: Klucel (hydroxypropylcellulose) (HPC) 99 % of control | dose: 200.0 mg/kg/injection, schedule: Q01DX009 (ip), vehicle: Klucel (hydroxypropylcellulose) (HPC) 117 % of control | dose: 400.0 mg/kg/injection, schedule: Q01DX009 (ip), vehicle: Klucel (hydroxypropylcellulose) (HPC) 102 % of control

C[n+]1cccc(NC(=O)c2ccc(NC(=O)C34CCC(C(=O)Nc5ccc(C(=O)Nc6ccc[n+](C)c6)cc5)(CC3)CC4)cc2)c1
inactive: dose: 5.0 mg/kg/injection, schedule: Q01DX009 (ip), vehicle: saline with Tween-80 93 % of control | dose: 10.0 mg/kg/injection, schedule: Q01DX009 (ip), vehicle: saline with Tween-80 99 % of control

N#CC(=C1SCS1)[N+](=O)[O-]
inactive: dose: 0.75 mg/kg/injection, schedule: Q01DX009 (ip), vehicle: saline with Tween-80 94 % of control | dose: 1.5 mg/kg/injection, schedule: Q01DX009 (ip), vehicle: saline with Tween-80 102 % of control | dose: 3.0 mg/kg/injection, schedule: Q01DX009 (ip), vehicle: saline with Tween-80 102 % of control | dose: 6.0 mg/kg/injection, schedule: Q01DX009 (ip), vehicle: saline with Tween-80 92 % of control

C1CCC2OCCOCCOC3CCCCC3OCCOCCOC2C1 (configuration not stated)
inactive: dose: 3.12 mg/kg/injection, schedule: Q01DX009 (ip), vehicle: Klucel (hydroxypropylcellulose) (HPC) 92 % of control | dose: 6.25 mg/kg/injection, schedule: Q01DX009 (ip), vehicle: Klucel (hydroxypropylcellulose) (HPC) 87 % of control | [6] 101 % of control | [7] 93 % of control | [8] 91 % of control

Source: PubChem BioAssay AID274 (DTP/NCI, 2004)
